Data taken from patent EP0086590A1, “Antibacterial agents, their preparation and use” (priority 1982, dated 1983).
Values after ≈ are worked out from the molar mass of the structure shown. Structures can show the parent of a compound that is named as a salt.

Assays:
[1] = test system: Enterobacter cloacae N1; assay: Antibacterial activity (mic); type: cell-based
[2] = test system: Escherichia coli 0111; assay: Antibacterial activity (mic); type: cell-based
[3] = test system: Escherichia coli JT39 R+; assay: Antibacterial activity (mic); type: cell-based
[4] = test system: Escherichia coli ESS; assay: Antibacterial activity (mic); type: cell-based
[5] = test system: Klebsiella aerogenes A; assay: Antibacterial activity (mic); type: cell-based
[6] = test system: Proteus mirabilis 977; assay: Antibacterial activity (mic); type: cell-based
[7] = test system: Proteus morganii 1580; assay: Antibacterial activity (mic); type: cell-based; conditions: Morganella morganii
[8] = test system: Proteus rettgeri WM16; assay: Antibacterial activity (mic); type: cell-based; conditions: Providencia rettgeri
[9] = test system: Pseudomonas aeruginosa A; assay: Antibacterial activity (mic); type: cell-based
[10] = test system: Pseudomonas aeruginosa Dalgleish; assay: Antibacterial activity (mic); type: cell-based
[11] = test system: Bacillus subtilis A; assay: Antibacterial activity (mic); type: cell-based
[12] = test system: Staphylococcus aureus Oxford; assay: Antibacterial activity (mic); type: cell-based
[13] = test system: Staphylococcus aureus Russell; assay: Antibacterial activity (mic); type: cell-based
[14] = test system: Streptococcus faecalis I; assay: Antibacterial activity (mic); type: cell-based; conditions: Enterococcus faecalis
[15] = test system: Serratia marcescens NEU3974; assay: Antibacterial activity (mic); type: cell-based
[16] = Effect of serum on antibacterial activity; type: cell-based
[17] = Mouse urinary recovery of antibacterial agent; type: in vivo; conditions: urine, sc, 10 mg/kg s/c, parent antibacterial agent administered alone
Experimental: By way of comparison. the parent antibacterial agent of the compound of Example 2 (ie sodium salt of [-2-acetamido- ethenylthio]-6-(I-hydroxysulphonyloxyethyl)-7-oxo-l-azabicyclo[3.2.0]hept-2-ene-2-carboxylic acid) was administered together with the corresponding dipeptidase inhibitor (ie 2-isovaleramidobut-2-ene) in a 1:1 relationship. […] However, since the compound of Example 2 liberates an approximate ratio of 2:1 by weight of antibacterial agent to inhibitor, the compound of Example 2 makes much more efficient use of the dipeptidase inhibitor.

[18] = test system: Escherichia coli E8; assay: Antibacterial activity (mic); type: cell-based
[19] = test system: Escherichia coli E96 R+; assay: Antibacterial activity (mic); type: cell-based
[20] = test system: Proteus mirabilis 13; assay: Antibacterial activity (mic); type: cell-based
[21] = test system: Pseudomonas aeruginosa 11; assay: Antibacterial activity (mic); type: cell-based
[22] = test system: Serratia marcescens US20; assay: Antibacterial activity (mic); type: cell-based

Row | Compound | MIC [1] [µg/mL] | MIC [2] [µg/mL] | MIC [3] [µg/mL] | MIC [4] [µg/mL] | MIC [5] [µg/mL] | MIC [6] [µg/mL] | MIC [7] [µg/mL] | MIC [8] [µg/mL] | MIC [9] [µg/mL] | MIC [10] [µg/mL] | MIC [11] [µg/mL] | MIC [12] [µg/mL] | MIC [13] [µg/mL] | MIC [14] [µg/mL] | Effect of serum on activity [16] | dose excreted [17] [%] | MIC [18] [µg/mL] | MIC [19] [µg/mL] | MIC [21] [µg/mL] | MIC [22] [µg/mL] | also measured
1 | C/C=C(\NC(=O)CC(C)C)C(=O)OCOC(=O)C1=C(Sc2ncccn2)C[C@@H]2[C@@H]([C@@H](C)O)C(=O)N12 (racemic) [Example 3, 2-Isovaleramidobut-2Z-enoyloxymethyl 5(R,S),6(S,R)-3-(pyrimidin-2-ylthio)-6-[l(R,S)-hydroxyethyl]-7-oxo-1-azabicyclo[3.2.0]hept-2-ene-2-carboxylate] | 25 (≈ 49.5 µM) | 6.2 (≈ 12.3 µM) | 3.1 (≈ 6.14 µM) | 1.6 (≈ 3.17 µM) | 3.1 (≈ 6.14 µM) | 12.5 (≈ 24.8 µM) | 25 (≈ 49.5 µM) | 25 (≈ 49.5 µM) | > 100 | > 100 | 0.8 (≈ 1.59 µM) | 0.8 (≈ 1.59 µM) | 0.8 (≈ 1.59 µM) | 50 (≈ 99.1 µM) | 10-20 fold |  |  |  |  |  | MIC [15]: 100 µg/mL (≈ 198 µM)
2 | CC(=O)NC=CSC1=C(C(=O)O)N2C(=O)C(C(C)O)C2C1 [(A), Sodium (5R,6R)-3-[(E)-2-acetamidoethenylthio]-6-[(S)-1-hydroxyethyl]-7-axo-1-azabicyclo[3.2.0]hept-2-ene-2-carboxylate] |  |  |  |  |  |  |  |  |  |  |  |  |  |  |  | 0.3 |  |  |  |  | 
3 | CC(=O)NC=CSC1=C(C(=O)O)N2C(=O)C(C(C)OS(=O)(=O)O)C2C1 (stereo not drawn) [(B), sodium salt of [-2-acetamido-ethenylthio]-6-(I-hydroxysulphonyloxyethyl)-7-oxo-l-azabicyclo[3.2.0]hept-2-ene-2-carboxylic acid] |  |  |  |  |  |  |  |  |  |  |  |  |  |  |  | 1.5 |  |  |  |  | 
4 | C/C=C(\NC(=O)CC(C)C)C(=O)OCOC(=O)C1=C(S/C=C/NC(C)=O)C[C@@H]2[C@H]([C@H](C)O)C(=O)N12 [Example 1, 2-Isovaleramidobut-2Z-enoyloxymethyl (5R,6R)-3-[(E)-2-acetamidoethenylthio]-6-[(S)-1-hydroxyethyl]-7-oxo-1-azabicyclo[3.2.0]hept-2-ene-2-carboxylate] | 6.2 (≈ 12.2 µM) | 0.8 (≈ 1.57 µM) | 25 (≈ 49.1 µM) | 0.2 (≈ 0.392 µM) | 6.2 (≈ 12.2 µM) | 3.1 (≈ 6.08 µM) | 25 (≈ 49.1 µM) | 6.2 (≈ 12.2 µM) | > 100 | 100 (≈ 196 µM) | 0.4 (≈ 0.785 µM) | 0.4 (≈ 0.785 µM) | 0.8 (≈ 1.57 µM) | 3.1 (≈ 6.08 µM) | 2-8 fold |  | 0.8 (≈ 1.57 µM) | 100 (≈ 196 µM) | 100 (≈ 196 µM) | 6.2 (≈ 12.2 µM) | MIC [20]: 0.8 µg/mL (≈ 1.57 µM)
5 | CC=C(NC(=O)CC(C)C)C(=O)OCOC(=O)C1=C(SC=CNC(C)=O)CC2C(C(C)OS(=O)(=O)O)C(=O)N12 [Example 2, Sodium salt of 2-Isovaleramidobut-2Z-en-oyloxymethyl (5R,6R)-3-[(E)-2-acetamidoethenylthio]-6-[(S)-l-hydroxysulphonyloxyethyl]-7-oxo-l-azabicyclo[3.2.0]hept 2-ene-2-carboxylate] | 3.1 | 3.1 | 1.6 | 1.6 | 0.4 | 3.1 |  | 0.8 | 100 | 100 | 1.6 | 1.6 | 3.1 | 50 | 2-4 fold |  | 6.2 | 12.5 | 100 | 6.2 | 
